Results as given in the METLIN SMRT retention time set (Domingo-Almenara et al. 2019).

Experiment: gradient 5% acetonitrile 3 min, to 50% in 2 min, to 85% in 15 min, held 3 min, 100 µL/min
Conditions: column: Zorbax Extend-C18 2.1 x 50 mm; eluents: water / acetonitrile, 0.1% formic acid
Outline: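 Mixtures of ~100 pure standards were chromatographed on a Zorbax Extend-C18 column (2.1 × 50 mm, 1.8 μm) at 100 μL/min using water and acetonitrile, each with 0.1% formic acid. Detection used a quadrupole time-of-flight mass spectrometer in positive and negative ionization mode, and data collection spanned 3 months. Retention time was obtained from adduct peaks picked computationally and each checked manually.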

Row | Structure (SMILES) | RP-LC retention time [s]
1 | Fc1cccc(-c2nnc3sc(-c4ccc5ccccc5n4)nn23)c1 | 1180
2 | CCOC(=O)c1nnc2c(-c3ccccc3)c(C)nn2c1N | 828
3 | COc1ccc(NC(=O)c2ccc(-c3cncnc3)nc2)cc1 | 687
4 | CCc1ccc(S(=O)(=O)Nc2cc(C(=O)O)ccc2N2CCN(c3ccccn3)CC2)cc1 | 669
5 | Cc1oc(-c2[nH]ncc2C(=O)N(C)C)cc1S(=O)(=O)Nc1ccccc1 | 609
6 | O=C(Cn1cccc(-c2nc(-c3ccccc3)no2)c1=O)Nc1ccc(Cl)c(C(F)(F)F)c1 | 1040
7 | CCc1nccn1Cc1noc(-c2ccccc2F)n1 | 613
8 | Cc1cc(F)ccc1NC(=O)c1c(O)c2cccnc2n(-c2ccc(F)cc2)c1=O | 1240
9 | Cc1ccc(-c2nc3ncccn3c2Nc2ccc(C)c(Cl)c2)cc1 | 910
10 | Cc1ccccc1NS(=O)(=O)c1ccc(-c2nnc(C3CCC3)o2)o1 | 909
11 | CCN1CCN(CCNC(=O)C2CCCN(c3nnc(C)c4c(C)n(-c5ccccc5)nc34)C2)CC1 (stereo not drawn) | 570
12 | Cc1ccccc1Cn1c(CN2CCC(C(=O)NCc3cccs3)CC2)cc2ccccc21 | 790
13 | COc1ccc(NC(=O)N2CCC3(C2)C(=O)N(C)c2ccccc23)cc1 (stereo not drawn) | 745
14 | O=C(NCc1csc(-c2ccccc2)n1)[C@H]1CCCN1C(=O)Nc1ccc(Br)cc1 | 874
15 | CCN1C(=O)CCc2cc(NS(=O)(=O)c3ccccc3Cl)ccc21 | 751
16 | CN(C)C(CNC(=O)Cn1c(=O)oc2ccccc21)c1cn(C)c2ccccc12 (stereo not drawn) | 575
17 | COc1ccc(OC)c(S(=O)(=O)N2CCC(C)(c3noc(C)n3)CC2)c1 | 866
18 | Cc1csc(-c2csc(S(=O)(=O)N3CCc4ccccc4C3)c2)n1 | 1110
19 | O=S(=O)(c1ccccc1)N1CCC(c2noc(-c3ccc(F)cc3)n2)CC1 | 791
20 | O=S(=O)(Nc1ccc(-c2ccc(N3CCCC3)nn2)cc1)c1ccc(Cl)s1 | 594
21 | CCOC(=O)c1nc(N2CCN(Cc3ccccc3)CC2)c2ccccc2n1 | 623
22 | Cc1nn(CCC(=O)NCCC2=CCCCC2)c(=O)c2nn(-c3ccccc3)c(C)c12 | 867

Row | Structure (SMILES) | RP-LC retention time [s]
23 | CC1=C(c2ccccc2)S(=O)(=O)N=C1N1CCCN(C(=O)C2CCCCC2)CC1 | 868
24 | Cc1nn(C)c(=O)c2cc(S(=O)(=O)NCc3ccco3)cn12 | 718
25 | CCc1cccc(NC(=O)N2CCc3nc(-c4ccccc4)ncc3C2)c1 | 901
26 | CCC1Oc2ccc(S(=O)(=O)N3CCC(C(=O)Nc4ccc(Cl)cc4)CC3)cc2NC1=O (stereo not drawn) | 950
27 | O=C(NCCC1=CCCCC1)c1cccc(CN2C(=O)C3CCCN3C(=O)c3ccccc32)c1 (stereo not drawn) | 890
28 | O=C(Nc1cc(F)ccc1F)N1CCCC1c1nc(-c2ccccc2)no1 (stereo not drawn) | 1020
29 | COc1ccccc1C(=O)N1CCN(c2nc3ccccc3n(C)c2=O)CC1 | 830
30 | CCN(CC)CCNC(=O)CCc1cc2ccc(C)cc2[nH]c1=O | 591
31 | Cc1ccn(-c2ccc(C(=O)Nc3ccccc3)cn2)n1 | 885
32 | CC(NC(=O)CN1c2ccc(F)cc2-c2ccccc2S1(=O)=O)c1ccccc1 (stereo not drawn) | 937
33 | O=C(CSc1ccc(F)cc1)OCc1cc(-c2ccc3c(c2)OCO3)on1 | 1020
34 | CS(=O)(=O)N(C1CCOCC1)C1CN(C(=O)Nc2ccccc2F)C1 | 670
35 | CCOC(=O)CNC(=O)N(C)CCc1noc(-c2ccc(F)cc2)n1 | 742
36 | Cc1nn(-c2ccccc2)c2sc(C(=O)Oc3ccc(F)cc3)cc12 | 1380
37 | COc1ccc(C2CC(=O)N(c3cc(C)ccc3C)C(=O)C2)cc1OC | 872
38 | O=C(NCc1ccncc1)C1CCCN(c2nnc3c(Cl)cccn23)C1 (stereo not drawn) | 561
39 | CCC1CCCCN1C(=O)c1cnc2nc(C)ccc2c1Nc1ccc(OC)cc1C (stereo not drawn) | 692
40 | Cc1nnc(-c2nnc(NC(C)C)c3ccccc23)o1 | 602
41 | Cc1cccc2sc(N(CCCN(C)C)C(=O)c3ccccc3Br)nc12 | 629
42 | CCN1C(=O)c2cccnc2Sc2cc(NC(=O)c3ccc(F)c(Cl)c3)ccc21 | 964
43 | CNC(=O)c1cc(Oc2ccc(NC(=O)Nc3cc(C(C)(C)C)nn3-c3ccc4ncccc4c3)c(F)c2)ccn1 | 855
44 | C=CCn1c(=O)c2ccc(C(=O)NCC(C)C)cc2n2c(=O)n(CC(N)=O)nc12 | 643

Continued, values first:

Row | RP-LC retention time [s] | Structure (SMILES)
45 | 858 | CCN1c2ccc(C)cc2C(=O)NC12CCN(C(=O)c1ccc(Cl)cc1)CC2
46 | 687 | O=C(NCc1ccco1)N1CCc2nn(Cc3ccccc3)c(=O)n2CC1
47 | 731 | CCN1c2ccccc2C(=O)NC12CCN(C(=O)Nc1ccccc1C)CC2
48 | 669 | COc1ccc(S(=O)(=O)N2CCCC(C(=O)NCCO)C2)cc1C (stereo not drawn)
49 | 660 | CCNC(=O)Nc1ccc2c(c1)CN(S(=O)(=O)CC)CCO2
50 | 598 | COC(=O)c1ccc(Nc2c(C(=O)N3CCCC3)cnc3nc(C)ccc23)cc1
51 | 1000 | O=C1[C@H]2CN(Cc3cccc(OC(F)(F)F)c3)C[C@H]2C(=O)N1CCc1ccccc1
52 | 636 | O=C(CCNNC(=O)c1ccncc1)NCc1ccccc1
53 | 793 | COc1ccc(S(=O)(=O)CCC(=O)Nc2sc3c(c2C(N)=O)CCC(C)C3)cc1 (stereo not drawn)
54 | 775 | CCNC(=O)N1CCCC(c2cccc(C(=O)NCc3ccccc3C)c2)C1 (stereo not drawn)
55 | 1150 | COc1ccc(-c2nnc(-c3cc(S(=O)(=O)N4CCCCC4)ccc3Cl)o2)cc1
56 | 995 | N#Cc1ccc(NC(=O)c2noc3c2CCCCC3)cc1
57 | 676 | COc1ccc(CNC(=O)C2CCCN(c3cnc4nccnc4c3)C2)cc1 (stereo not drawn)
58 | 879 | COc1ccc(N2C(=O)CN(Cc3ccccc3C)[C@H]3CS(=O)(=O)C[C@H]32)cc1Cl
59 | 852 | CCCC(=O)Nc1cc2c(cc1SC(C)C)n(C)c(=O)n2C
60 | 763 | Cc1ccc(-c2nc3nc(C)cc(N4CCOCC4)n3n2)cc1
61 | 754 | COC(=O)c1c(C)[nH]c(C(=O)N2CCC(CC(=O)N3CCN(c4cccc(C)c4)C(C)C3)CC2)c1C (stereo not drawn)
62 | 701 | CC(C(=O)N1CC(n2cc(COCC3CC3)nn2)C1)c1ccccc1 (stereo not drawn)
63 | 1010 | CCS(=O)(=O)N1CC(=O)N(c2ccc(C)c(Cl)c2)C(C)(C(=O)NC2CCCCCC2)C1 (stereo not drawn)
64 | 1160 | COc1ccc(CNS(=O)(=O)c2ccccc2-c2nc(-c3ccc(F)cc3)no2)cc1
65 | 760 | COCCn1c(=O)c2cc(C(=O)N3CCCC3)nn2c2ccccc21
66 | 652 | Cc1oc2c(c1C(=O)Nc1cccc(C(F)(F)F)c1)C1=NCCN1C=N2

Row | RP-LC retention time [s] | Structure (SMILES)
67 | 1070 | CCn1cc(-c2nc(C)c(C(=O)Nc3cc(F)ccc3F)s2)c2cccnc21
68 | 1170 | CCc1nc(-n2cccc2)sc1C(=O)Nc1ccc(F)c(C)c1
69 | 1060 | CC(C)CCNC(=O)C1CCCN(c2ncc(-c3ccc(F)cc3)cn2)C1 (stereo not drawn)
70 | 924 | CCOC(=O)c1c(S(=O)(=O)N2CCC(C(=O)Nc3ccc(C)c(F)c3)CC2)c(C)n(C)c1C
71 | 622 | Cc1ccccc1-c1noc(Cn2ccnc2C)n1
72 | 937 | CCCS(=O)(=O)N1CCC(OCCOCc2ccccc2)CC1
73 | 1140 | Cc1ccc2c(c1)OCC(=O)N2Cc1nc(-c2ccc(Cl)cc2)no1
74 | 864 | COCCCn1cc(C(=O)Nc2cccc(C)n2)c2nn(-c3ccccc3)c(=O)c-2c1
75 | 869 | CCC(C)NC(=O)N(C)CCc1noc(COc2ccc(Cl)cc2)n1 (stereo not drawn)
76 | 790 | CC1=C(c2ccc(F)cc2)S(=O)(=O)N=C1N1CCCN(C(=O)C2CCC2)CC1
77 | 1060 | O=C(c1ccc(F)cc1F)N1CCc2nc(-c3ccc(Cl)cc3)ncc2C1
78 | 912 | Cc1ccc(S(=O)(=O)N2CCCN(c3ccc(=O)n(-c4ccccc4)n3)CC2)cc1C
79 | 833 | CCc1noc(-c2c(S(=O)(=O)NC3CCCC3)c(C)n(C)c2C)n1
80 | 775 | O=c1c(Nc2ccc(F)c(F)c2)nc2ccncc2n1Cc1ccccc1
81 | 1300 | CCOc1ccc(-c2cc3c(SCC)nccn3n2)cc1
82 | 1020 | COc1ccccc1C(=O)Nc1cccn2nc(C(C)C)nc12
83 | 914 | O=C(Nc1ccc(Br)cc1)c1ccc(S(=O)(=O)N2CCCC2)cc1
84 | 1010 | O=C(Nc1ccc2c(c1)OCCO2)N1CCN(c2nc3ccccc3n(Cc3ccccc3)c2=O)CC1
85 | 1030 | CS(=O)(=O)c1ccccc1C(=O)Nc1nc(-c2cc(Cl)sc2Cl)cs1
86 | 709 | O=C(c1cc2ccccc2o1)N1CC(c2nc(-c3cccnc3)no2)C1
87 | 1010 | COc1cccc(C2Cn3nnc(-c4nc(-c5ccccc5OC)no4)c3CO2)c1 (stereo not drawn)
88 | 786 | O=C(N[C@H]1C[C@@H]2C[C@H]1CN2C(=O)c1ccc(OC(F)(F)F)cc1)c1ccccc1
